From US20150259300A1, “4-(ORTHO)-FLUOROPHENYL-5-FLUOROPYRIMIDIN-2-YL AMINES CONTAINING A SULFONE GROUP” (BAYER PHARMA AKTIENGESELLSCHAFT, priority 2012, published 2015) come the findings set out here.

For one test, the system named is HeLa cells. Nature of the test: Proliferation assay (crystal violet), HeLa. It is filed as cell-based. To be noted: Homo sapiens, 96 h, 4 days, read-out: Inhibition of HeLa cell proliferation IC50. As for the experimental part:
Cultivated tumour cells (HeLa, human cervical tumour cells, ATCC CCL-2; NCI-H460, human non-small cell lung carcinoma cells, ATCC HTB-177; A2780, human ovarian carcinoma cells, ECACC #93112519; DU 145, hormone-independent human prostate carcinoma cells, ATCC HTB-81; HeLa-MaTu-ADR, multidrug-resistant human cervical carcinoma cells, EPO-GmbH Berlin; Caco-2, human colorectal carcinoma cells, ATCC HTB-37; B 16F10, mouse melanoma cells, ATCC CRL-6475) were plated at a density of 5,000 cells/well (DU145, HeLa-MaTu-ADR), 3,000 cells/well (NCI-H460, HeLa), 2,500 cells/well (A2780), 1,500 cells/well (Caco-2), or 1,000 cells/well (B16F10) in a 96-well multititer plate in 200 μL of their respective growth medium supplemented 10% fetal calf serum. After 24 hours, the cells of one plate (zero-point plate) were stained with crystal violet (see below), while the medium of the other plates was replaced by fresh culture medium (200 to which the test substances were added in various concentrations (0 μM, as well as in the range of 0.001-10 μM; the final concentration of the solvent dimethyl sulfoxide was 0.5%). The cells were incubated for 4 days in the presence of test substances. Cell proliferation was determined by staining the cells with crystal violet: the cells were fixed by adding 20 μl/measuring point of an 11% glutaric aldehyde solution for 15 minutes at room temperature. After three washing cycles of the fixed cells with water, the plates were dried at room temperature. The cells were stained by adding 100 μl/measuring point of a 0.1% crystal violet solution (pH 3.0). After three washing cycles of the stained cells with water, the plates were dried at room temperature. The dye was dissolved by adding 100 μl/measuring point of a 10% acetic acid solution. The extinction was determined by photometry at a wavelength of 595 nm. The change of cell number, in percent, was calculated by normalization of the measured values to the extinction values of the zero-point plate (=0%) and the extinction of the untreated (0 μm) cells (=100%). The IC50 values (inhibitory concentration at 50% of maximal effect) were determined by means of a 4 parameter fit.

For the next test, the target named is T1, CDK2/CycE (Homo sapiens, UniProt P24941).
T1 construct: GST; purchased ProQinase GmbH (Freiburg, Germany); host or cells: insect cells (Sf9)
Nature of the test: CDK2/CycE kinase assay (TR-FRET, Method 2). Format: biochemical. As to conditions: Method 2, 10 μM ATP. From the text: 2. CDK2/CycE Kinase Assay:
CDK2/CycE -inhibitory activity of compounds of the present invention was quantified employing the CDK2/CycE TR-FRET assay as described in the following paragraphs:
Recombinant fusion proteins of GST and human CDK2 and of GST and human CycE, expressed in insect cells (Sf9) and purified by Glutathion-Sepharose affinity chromatography, were purchased from ProQinase GmbH (Freiburg, Germany). As substrate for the kinase reaction biotinylated peptide biotin-Ttds-YISPLKSPYKISEG (C-terminus in amid form) was used which can be purchased e.g. form the company JERINI Peptide Technologies (Berlin, Germany).
(§1) For the assay 50 nl of a 100 fold concentrated solution of the test compound in DMSO was pipetted into a black low volume 384 well microtiter plate (Greiner Bio-One, Frickenhausen, Germany), 2 μl of a solution of CDK2/CycE in aqueous assay buffer [50 mM Tris/HCl pH 8.0, 10 mM MgCl2, 1.0 mM dithiothreitol, 0.1 mM sodium ortho-vanadate, 0.01% (v/v) Nonidet-P40 (Sigma)] were added and the mixture was incubated for […] at 22° C. to allow pre-binding of the test compounds to the enzyme before the start of the kinase reaction. Then the kinase reaction was started by the addition of 3 μl of a solution of adenosine-tri-phosphate (ATP, 16.7 μM=>final conc. in the 5 μl assay volume is 10 μM) and substrate (1.25 μM=>final conc. in the 5 μl assay volume is 0.75 μM) in assay buffer and the resulting mixture was incubated for a reaction time of […] at 22° C. The concentration of CDK2/CycE was adjusted depending of the activity of the enzyme lot and was chosen appropriate to have the assay in the linear range, typical concentrations were in the range of 130 ng/ml. The reaction was stopped by the addition of 5 μl of a solution of TR-FRET detection reagents (0.2 μM streptavidine-XL665 [Cisbio Bioassays, Codolet, France] and 1 nM anti-RB(pSer807/pSer811)-antibody from BD Pharmingen [#558389] and 1.2 nM LANCE EU-W1024 labeled anti-mouse IgG antibody [Perkin-Elmer, product no. AD0077]) in an aqueous EDTA-solution (100 mM EDTA, 0.2% (w/v) bovine serum albumin in 100 mM HEPES/NaOH pH 7.0).
(§2) The resulting mixture was incubated 1 h at 22° C. to allow the formation of complex between the phosphorylated biotinylated peptide and the detection reagents. Subsequently the amount of phosphorylated substrate was evaluated by measurement of the resonance energy transfer from the Eu-chelate to the streptavidine-XL. Therefore, the fluorescence emissions at 620 nm and 665 nm after excitation at 350 nm was measured in a TR-FRET reader, e.g. a Rubystar (BMG Labtechnologies, Offenburg, Germany) or a Viewlux (Perkin-Elmer). The ratio of the emissions at 665 nm and at […] was taken as the measure for the amount of phosphorylated substrate. The data were normalised (enzyme reaction without inhibitor=0% inhibition, all other assay components but no enzyme=100% inhibition).

Test [1] concerns the target T2, CDK9/CycT1 (Homo sapiens, UniProt P50750).
T2 construct: Recombinant full-length His-tagged human CDK9 and CycT1; His; purchased Invitrogen PV4131; host or cells: insect cells
As to the kind of experiment: CDK9/CycT1 high ATP kinase assay (TR-FRET, Method 1b). It is filed as biochemical. As to conditions: 2 mM ATP. The procedure: 1b. CDK9/CyeT1 High ATP Kinase Assay
CDK9/CycT1-inhibitory activity of compounds of the present invention at a high ATP concentration after preincubation of enzyme and test compounds was quantified employing the CDK9/CycT1 TR-FRET assay as described in the following paragraphs.
Recombinant full-length His-tagged human CDK9 and CycT1, expressed in insect cells and purified by Ni-NTA affinity chromatography, were purchase from Invitrogen (Cat. No PV4131). As substrate for the kinase reaction biotinylated peptide biotin-Ttds-YISPLKSPYKISEG (C-terminus in amid form) was used which can be purchased e.g. form the company JERINI peptide technologies (Berlin, Germany).
as §1, with “of CDK9/CycT1” for “of CDK2/CycE”, “(ATP, 3.3 mM=>final conc. in the 5 μl assay volume is 2 mM) and substrate (1.67” for “(ATP, 16.7”, “is 1” for “is 10 μM) and substrate (1.25 μM=>final conc. in the 5 μl assay volume is 0.75”, “of 0.5” for “of 130”, “([…]” for “(0.2 μM”
as §2, with “HTRF” for “TR-FRET”

Test [2] addresses T2, CDK9/CycT1. Nature of the test: CDK9/CycT1 kinase assay (TR-FRET, Method 1a). It is filed as biochemical. To be noted: for IC50: Method 1a, 10 μM ATP; for Selectivity CDK9/CDK2: derived from Methods 1a. and 2.
Text: 1a. CDK9/CyeT1 Kinase Assay:
CDK9/CycT1-inhibitory activity of compounds of the present invention was quantified employing the CDK9/CycT1 TR-FRET assay as described in the following paragraphs:
Recombinant full-length His-tagged human CDK9 and CycT1, expressed in insect cells and purified by Ni-NTA affinity chromatography, were purchased from Invitrogen (Cat. No PV4131). As substrate for the kinase reaction biotinylated peptide biotin-Ttds-YISPLKSPYKISEG (C-terminus in amid form) was used which can be purchased e.g. form the company JERINI Peptide Technologies (Berlin, Germany). For the assay 50 nl of a 100 fold concentrated solution of the test compound in DMSO was pipetted into a black low volume 384 well microtiter plate (Greiner Bio-One, Frickenhausen, Germany), 2 μl of a solution of CDK9/CycT1 in aqueous assay buffer [50 mM Tris/HCl pH 8.0, 10 mM MgCl2, 1.0 mM dithiothreitol, 0.1 mM sodium ortho-vanadate, 0.01% (v/v) Nonidet-P40 (Sigma)] were added and the mixture was incubated for 15 min at 22° C. to allow pre-binding of the test compounds to the enzyme before the start of the kinase reaction. Then the kinase reaction was started by the addition of 3 μl of a solution of adenosine-tri-phosphate (ATP, 16.7 μM=>final conc. in the 5 μl assay volume is 10 μM) and substrate (1.67 μM=>final conc. in the 5 μl assay volume is 1 μM) in assay buffer and the resulting mixture was incubated for a reaction time of 25 min at 22° C. The concentration of CDK9/CycT1 was adjusted depending of the activity of the enzyme lot and was chosen appropriate to have the assay in the linear range, typical concentrations were in the range of 1 μg/ml. The reaction was stopped by the addition of 5 μl of a solution of TR-FRET detection reagents (0.2 μM streptavidine-XL665 [Cisbio Bioassays, Codolet, France] and 1 nM anti-RB(pSer807/pSer811)-antibody from BD Pharmingen [#558389] and 1.2 nM LANCE EU-W1024 labeled anti-mouse IgG antibody [Perkin-Elmer, product no. AD0077]) in an aqueous EDTA-solution (100 mM EDTA, 0.2% (w/v) bovine serum albumin in 100 mM HEPES/NaOH pH 7.0).
as §2, with “HTRF” for “TR-FRET”

T2 sequence (P50750 whole entry): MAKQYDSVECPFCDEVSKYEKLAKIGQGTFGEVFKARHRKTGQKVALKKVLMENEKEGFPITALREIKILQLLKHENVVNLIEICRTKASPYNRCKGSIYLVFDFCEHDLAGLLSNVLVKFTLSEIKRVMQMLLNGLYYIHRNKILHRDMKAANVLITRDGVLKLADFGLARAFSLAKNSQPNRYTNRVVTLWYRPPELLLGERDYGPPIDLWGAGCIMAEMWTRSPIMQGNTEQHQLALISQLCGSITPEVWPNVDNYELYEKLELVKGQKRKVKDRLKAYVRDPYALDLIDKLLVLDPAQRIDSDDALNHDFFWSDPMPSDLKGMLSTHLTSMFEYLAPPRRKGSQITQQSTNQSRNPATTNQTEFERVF
T2 sequence (O60563 whole entry partner): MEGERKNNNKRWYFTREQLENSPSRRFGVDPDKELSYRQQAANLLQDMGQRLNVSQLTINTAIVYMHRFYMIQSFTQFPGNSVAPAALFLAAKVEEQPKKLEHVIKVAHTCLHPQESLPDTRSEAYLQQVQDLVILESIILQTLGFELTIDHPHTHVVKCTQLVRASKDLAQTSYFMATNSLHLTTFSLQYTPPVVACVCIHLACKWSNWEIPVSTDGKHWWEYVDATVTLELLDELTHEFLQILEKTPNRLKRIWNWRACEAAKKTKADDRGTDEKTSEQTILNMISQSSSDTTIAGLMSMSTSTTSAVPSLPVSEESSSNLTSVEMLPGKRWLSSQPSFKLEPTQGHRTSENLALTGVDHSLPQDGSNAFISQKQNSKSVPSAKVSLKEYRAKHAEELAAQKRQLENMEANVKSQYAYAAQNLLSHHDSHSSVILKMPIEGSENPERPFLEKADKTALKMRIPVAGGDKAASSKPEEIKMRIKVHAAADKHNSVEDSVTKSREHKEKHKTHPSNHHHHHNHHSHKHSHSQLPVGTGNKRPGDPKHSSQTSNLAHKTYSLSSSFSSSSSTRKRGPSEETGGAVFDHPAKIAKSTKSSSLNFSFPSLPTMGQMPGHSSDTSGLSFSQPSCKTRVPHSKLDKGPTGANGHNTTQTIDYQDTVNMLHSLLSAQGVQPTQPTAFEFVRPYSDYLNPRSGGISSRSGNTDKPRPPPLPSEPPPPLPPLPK

As for `CCCS(=O)(=O)Cc1cc(F)cc(Nc2ncc(F)c(-c3cc(F)c(F)cc3F)n2)c1` [Example 14, 5-Fluoro-N-{3-fluoro-5-[(propylsulfonyl)methyl]phenyl}-4-(2,4,5-trifluorophenyl)pyrimidin-2-amine], the figures for the IC50 with HeLa cells, against CDK2/CycE and at CDK9/CycT1 [1] were 3000 nM, greater than 20000 nM and greater than 20000 nM, respectively.
On to `CCS(=O)(=O)Cc1cccc(Nc2ncc(F)c(-c3ccc(F)cc3F)n2)c1` [Example 7, 4-(2,4-Difluorophenyl)-N-{3-[(ethylsulfonyl)methyl]phenyl}-5-fluoropyrimidin-2-amine], for which the IC50 at CDK9/CycT1 [2] amounted to 40 nM; in the test with HeLa cells it was 2240 nM; against CDK2/CycE it was 360 nM. Besides, the “Selectivity CDK9/CDK2” value on CDK9/CycT1 [2] was 8.9.
The corresponding values for `CS(=O)(=O)Cc1cc(Nc2ncc(F)c(-c3ccc(F)cc3F)n2)cc(C(F)(F)F)c1` [Example 1, 4-(2,4-Difluorophenyl)-5-fluoro-N-{3-[(methylsulfonyl)methyl]-5-(trifluoromethyl)phenyl}pyrimidin-2-amine] are 20 nM, 1050 nM, greater than 20000 nM and greater than 1000.
